In the NIST ThermoML archive (doi:10.1021/je700140j):
± gives the expanded uncertainty stated by the source.

Experiments:
[1] = refractive index (Na D-line) (dimensionless); details: 101.33 kPa, Liquid, Standard Abbe refractometry
[2] = for surface tension liquid-gas: Ring tensiometer; for mass density / viscosity: 100.8 kPa, Liquid
[3] = refractive index (Na D-line) (dimensionless); xn = mol fraction of the nth substance listed; details: 100.8 kPa, Liquid, Standard Abbe refractometry, x1 = 1
[4] = xn = mol fraction of the nth substance listed; details: x1 = 1; for surface tension liquid-gas: Ring tensiometer; for mass density / viscosity: 100.8 kPa, Liquid

SMILES: CC(C)O [propan-2-ol]
- refractive index ([1]; 298.15 K): 1.37507 ± 0.00033
- refractive index ([1]; 308.15 K): 1.37063 ± 0.00033
- refractive index ([1]; 318.15 K): 1.3661 ± 0.00033
- surface tension liquid-gas ([2]; 298.15 K): 20.85 ± 0.32 mN/m
- mass density ([2]; 298.15 K): 781.17 ± 0.61 kg/m3
- viscosity ([2]; 298.15 K): 2.082 ± 0.028 mPa·s
- surface tension liquid-gas ([2]; 308.15 K): 20.05 ± 0.31 mN/m
- mass density ([2]; 308.15 K): 772.53 ± 0.63 kg/m3
- viscosity ([2]; 308.15 K): 1.55 ± 0.021 mPa·s
- surface tension liquid-gas ([2]; 318.15 K): 19.35 ± 0.31 mN/m
- mass density ([2]; 318.15 K): 763.52 ± 0.65 kg/m3
- viscosity ([2]; 318.15 K): 1.181 ± 0.016 mPa·s

SMILES: CC(C)O [propan-2-ol] + OCCc1ccccc1
- refractive index ([3]; 298.15 K): 1.37507 ± 0.00033
- refractive index ([3]; 308.15 K): 1.37063 ± 0.00033
- refractive index ([3]; 318.15 K): 1.3661 ± 0.00033
- surface tension liquid-gas ([4]; 298.15 K): 20.85 ± 0.32 mN/m
- mass density ([4]; 298.15 K): 781.17 ± 0.61 kg/m3
- viscosity ([4]; 298.15 K): 2.082 ± 0.028 mPa·s
- surface tension liquid-gas ([4]; 308.15 K): 20.05 ± 0.31 mN/m
- mass density ([4]; 308.15 K): 772.53 ± 0.63 kg/m3
- viscosity ([4]; 308.15 K): 1.55 ± 0.021 mPa·s
- surface tension liquid-gas ([4]; 318.15 K): 19.35 ± 0.31 mN/m
- mass density ([4]; 318.15 K): 763.52 ± 0.65 kg/m3
- viscosity ([4]; 318.15 K): 1.181 ± 0.016 mPa·s

SMILES: OCc1ccccc1 [benzenemethanol] + OCCc1ccccc1
- refractive index ([3]; 298.15 K): 1.53843 ± 0.00033
- refractive index ([3]; 308.15 K): 1.53421 ± 0.00033
- refractive index ([3]; 318.15 K): 1.52994 ± 0.00033
- surface tension liquid-gas ([4]; 298.15 K): 38.63 ± 0.54 mN/m
- mass density ([4]; 298.15 K): 1041.4 ± 0.29 kg/m3
- viscosity ([4]; 298.15 K): 5.555 ± 0.071 mPa·s
- surface tension liquid-gas ([4]; 308.15 K): 37.73 ± 0.53 mN/m
- mass density ([4]; 308.15 K): 1033.6 ± 0.27 kg/m3
- viscosity ([4]; 308.15 K): 4.093 ± 0.054 mPa·s
- surface tension liquid-gas ([4]; 318.15 K): 36.75 ± 0.52 mN/m
- mass density ([4]; 318.15 K): 1025.72 ± 0.26 kg/m3
- viscosity ([4]; 318.15 K): 3.12 ± 0.041 mPa·s

SMILES: OCCc1ccccc1 [2-phenylethanol]
- refractive index ([1]; 298.15 K): 1.53269 ± 0.00037
- refractive index ([1]; 308.15 K): 1.52852 ± 0.00037
- refractive index ([1]; 318.15 K): 1.52427 ± 0.00037
- surface tension liquid-gas ([2]; 298.15 K): 39.43 ± 0.58 mN/m
- mass density ([2]; 298.15 K): 1016.2 ± 0.39 kg/m3
- viscosity ([2]; 298.15 K): 11.4 ± 0.14 mPa·s
- surface tension liquid-gas ([2]; 308.15 K): 38.93 ± 0.57 mN/m
- mass density ([2]; 308.15 K): 1008.63 ± 0.37 kg/m3
- viscosity ([2]; 308.15 K): 7.518 ± 0.098 mPa·s
- surface tension liquid-gas ([2]; 318.15 K): 38.35 ± 0.56 mN/m
- mass density ([2]; 318.15 K): 1000.98 ± 0.36 kg/m3
- viscosity ([2]; 318.15 K): 5.232 ± 0.071 mPa·s

SMILES: CC(C)O [propan-2-ol] + OCc1ccccc1
- refractive index ([3]; 298.15 K): 1.37507 ± 0.00033
- refractive index ([3]; 308.15 K): 1.37063 ± 0.00033
- refractive index ([3]; 318.15 K): 1.3661 ± 0.00033
- surface tension liquid-gas ([4]; 298.15 K): 20.85 ± 0.32 mN/m
- mass density ([4]; 298.15 K): 781.17 ± 0.61 kg/m3
- viscosity ([4]; 298.15 K): 2.082 ± 0.028 mPa·s
- surface tension liquid-gas ([4]; 308.15 K): 20.05 ± 0.31 mN/m
- mass density ([4]; 308.15 K): 772.53 ± 0.63 kg/m3
- viscosity ([4]; 308.15 K): 1.55 ± 0.021 mPa·s
- surface tension liquid-gas ([4]; 318.15 K): 19.35 ± 0.31 mN/m
- mass density ([4]; 318.15 K): 763.52 ± 0.65 kg/m3
- viscosity ([4]; 318.15 K): 1.181 ± 0.016 mPa·s

SMILES: OCc1ccccc1 [benzenemethanol]
- refractive index ([1]; 298.15 K): 1.53843 ± 0.00033
- refractive index ([1]; 308.15 K): 1.53421 ± 0.00033
- refractive index ([1]; 318.15 K): 1.52994 ± 0.00033
- surface tension liquid-gas ([2]; 298.15 K): 38.63 ± 0.54 mN/m
- mass density ([2]; 298.15 K): 1041.4 ± 0.29 kg/m3
- viscosity ([2]; 298.15 K): 5.555 ± 0.071 mPa·s
- surface tension liquid-gas ([2]; 308.15 K): 37.73 ± 0.53 mN/m
- mass density ([2]; 308.15 K): 1033.6 ± 0.27 kg/m3
- viscosity ([2]; 308.15 K): 4.093 ± 0.054 mPa·s
- surface tension liquid-gas ([2]; 318.15 K): 36.75 ± 0.52 mN/m
- mass density ([2]; 318.15 K): 1025.72 ± 0.26 kg/m3
- viscosity ([2]; 318.15 K): 3.12 ± 0.041 mPa·s
